Experimental data reported in US11981752B2, “Tumor associated monocyte/macrophage binding peptide and methods of use thereof” (Sanford Burnham Prebys Medical Discovery Institute, priority 2017, dated 2024).
“Also recorded” adds a separate entry of the source. Read-outs that look alike come from different tables or passages of the source. Bridge positions count the residues as written; N and C are the ends. Ends that are not written are not given here.

Columns and labels:
PI3Kβ = PI3Kβ (Homo sapiens, UniProt P42338); conditions: cited from earlier work
Chain of PI3Kβ (P42338 whole entry, species assumed): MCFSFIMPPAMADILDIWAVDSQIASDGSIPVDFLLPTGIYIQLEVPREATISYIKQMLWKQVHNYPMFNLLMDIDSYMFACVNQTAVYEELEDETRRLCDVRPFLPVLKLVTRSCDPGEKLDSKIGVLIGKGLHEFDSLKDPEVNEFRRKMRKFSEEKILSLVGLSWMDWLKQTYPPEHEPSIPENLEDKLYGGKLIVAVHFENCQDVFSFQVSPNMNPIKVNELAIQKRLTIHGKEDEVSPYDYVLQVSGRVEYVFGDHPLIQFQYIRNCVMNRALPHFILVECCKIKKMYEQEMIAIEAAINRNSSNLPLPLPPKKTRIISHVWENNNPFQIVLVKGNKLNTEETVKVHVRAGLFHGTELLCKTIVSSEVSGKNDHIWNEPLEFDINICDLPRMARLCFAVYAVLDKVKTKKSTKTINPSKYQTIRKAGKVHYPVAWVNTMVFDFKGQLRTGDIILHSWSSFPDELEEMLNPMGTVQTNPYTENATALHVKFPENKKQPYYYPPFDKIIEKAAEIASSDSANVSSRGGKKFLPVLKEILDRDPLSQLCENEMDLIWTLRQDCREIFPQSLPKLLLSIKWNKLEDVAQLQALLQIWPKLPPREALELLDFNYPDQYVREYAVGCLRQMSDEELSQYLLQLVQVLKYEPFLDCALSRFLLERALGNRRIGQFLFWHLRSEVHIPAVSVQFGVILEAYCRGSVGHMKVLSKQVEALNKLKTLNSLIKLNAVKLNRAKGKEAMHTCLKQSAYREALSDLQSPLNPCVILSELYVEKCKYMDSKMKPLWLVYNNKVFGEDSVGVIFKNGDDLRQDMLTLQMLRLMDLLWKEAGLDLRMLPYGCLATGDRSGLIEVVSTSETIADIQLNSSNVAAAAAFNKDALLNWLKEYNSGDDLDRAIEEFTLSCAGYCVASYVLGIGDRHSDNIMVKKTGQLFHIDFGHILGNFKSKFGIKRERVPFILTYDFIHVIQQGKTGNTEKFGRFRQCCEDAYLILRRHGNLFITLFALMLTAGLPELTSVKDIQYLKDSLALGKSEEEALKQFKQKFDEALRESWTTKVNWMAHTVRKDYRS
Chain of PI3Kβ (P27986 whole entry partner, species assumed): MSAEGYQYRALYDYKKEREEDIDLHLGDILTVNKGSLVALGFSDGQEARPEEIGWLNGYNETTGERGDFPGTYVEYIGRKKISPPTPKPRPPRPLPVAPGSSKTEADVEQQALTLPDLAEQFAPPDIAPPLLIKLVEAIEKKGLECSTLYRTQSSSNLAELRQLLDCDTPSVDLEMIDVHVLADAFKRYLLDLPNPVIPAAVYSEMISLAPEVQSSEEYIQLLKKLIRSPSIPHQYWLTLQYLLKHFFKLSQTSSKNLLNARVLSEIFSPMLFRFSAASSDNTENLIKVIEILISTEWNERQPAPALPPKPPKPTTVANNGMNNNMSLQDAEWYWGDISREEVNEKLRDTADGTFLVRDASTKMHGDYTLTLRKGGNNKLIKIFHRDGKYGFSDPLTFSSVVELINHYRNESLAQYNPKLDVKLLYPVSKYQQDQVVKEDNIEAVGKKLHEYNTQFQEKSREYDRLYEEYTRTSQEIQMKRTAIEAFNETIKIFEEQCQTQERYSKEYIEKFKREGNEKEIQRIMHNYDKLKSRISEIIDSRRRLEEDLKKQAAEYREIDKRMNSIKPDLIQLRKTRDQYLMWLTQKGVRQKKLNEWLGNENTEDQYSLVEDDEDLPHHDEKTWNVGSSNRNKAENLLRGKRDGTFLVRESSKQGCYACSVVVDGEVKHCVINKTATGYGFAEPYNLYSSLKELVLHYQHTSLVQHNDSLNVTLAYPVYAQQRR

mTOR = mTOR (Homo sapiens, UniProt P42345); conditions: cited from earlier work
J774A.1 cells [1] = assay: Phage display screening (CX7C T7 library) on J774A.1 cells; conditions: high throughput sequencing of phage clones bound to J774A.1 cells after three rounds of enrichment; terminal cysteines omitted
PI3Kδ = PI3Kδ (Homo sapiens, UniProt O00329); conditions: cited from earlier work
Chain of PI3Kδ (O00329 whole entry, species assumed, canonical isoform): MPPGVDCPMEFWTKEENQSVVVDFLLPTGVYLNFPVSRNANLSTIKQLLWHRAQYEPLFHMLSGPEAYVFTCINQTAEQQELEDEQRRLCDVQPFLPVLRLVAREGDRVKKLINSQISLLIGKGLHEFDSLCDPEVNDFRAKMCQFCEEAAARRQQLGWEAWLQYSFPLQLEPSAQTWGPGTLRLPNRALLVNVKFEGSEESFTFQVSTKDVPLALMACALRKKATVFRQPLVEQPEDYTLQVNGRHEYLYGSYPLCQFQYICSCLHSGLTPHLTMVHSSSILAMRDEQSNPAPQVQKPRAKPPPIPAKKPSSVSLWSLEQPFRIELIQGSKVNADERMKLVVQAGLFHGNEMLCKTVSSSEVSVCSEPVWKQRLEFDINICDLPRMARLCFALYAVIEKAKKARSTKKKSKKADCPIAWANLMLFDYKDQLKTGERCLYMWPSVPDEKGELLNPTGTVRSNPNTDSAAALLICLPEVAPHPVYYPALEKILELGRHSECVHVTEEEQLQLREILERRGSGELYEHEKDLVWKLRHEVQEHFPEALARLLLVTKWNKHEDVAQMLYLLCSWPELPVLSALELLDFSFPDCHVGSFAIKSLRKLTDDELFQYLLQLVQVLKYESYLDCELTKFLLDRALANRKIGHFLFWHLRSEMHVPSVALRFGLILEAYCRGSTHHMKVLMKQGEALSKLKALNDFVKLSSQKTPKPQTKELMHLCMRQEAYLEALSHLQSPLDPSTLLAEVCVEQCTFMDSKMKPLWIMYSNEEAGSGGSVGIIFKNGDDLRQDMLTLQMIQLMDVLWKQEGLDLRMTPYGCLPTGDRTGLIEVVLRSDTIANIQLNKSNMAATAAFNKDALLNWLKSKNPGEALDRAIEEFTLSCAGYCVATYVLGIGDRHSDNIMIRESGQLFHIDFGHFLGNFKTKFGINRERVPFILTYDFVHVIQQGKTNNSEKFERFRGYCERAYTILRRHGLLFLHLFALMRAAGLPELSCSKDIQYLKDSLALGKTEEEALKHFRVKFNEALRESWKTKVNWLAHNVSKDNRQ
Chain of PI3Kδ (P27986 whole entry partner, species assumed, canonical isoform): as the sequence (P27986 whole entry partner, species assumed) above

class I PI3K isoforms = conditions: cited from earlier work
PI3Kγ = PI3Kγ (Homo sapiens, UniProt P48736); conditions: cited from earlier work
Chain of PI3Kγ (P48736 whole entry, species assumed): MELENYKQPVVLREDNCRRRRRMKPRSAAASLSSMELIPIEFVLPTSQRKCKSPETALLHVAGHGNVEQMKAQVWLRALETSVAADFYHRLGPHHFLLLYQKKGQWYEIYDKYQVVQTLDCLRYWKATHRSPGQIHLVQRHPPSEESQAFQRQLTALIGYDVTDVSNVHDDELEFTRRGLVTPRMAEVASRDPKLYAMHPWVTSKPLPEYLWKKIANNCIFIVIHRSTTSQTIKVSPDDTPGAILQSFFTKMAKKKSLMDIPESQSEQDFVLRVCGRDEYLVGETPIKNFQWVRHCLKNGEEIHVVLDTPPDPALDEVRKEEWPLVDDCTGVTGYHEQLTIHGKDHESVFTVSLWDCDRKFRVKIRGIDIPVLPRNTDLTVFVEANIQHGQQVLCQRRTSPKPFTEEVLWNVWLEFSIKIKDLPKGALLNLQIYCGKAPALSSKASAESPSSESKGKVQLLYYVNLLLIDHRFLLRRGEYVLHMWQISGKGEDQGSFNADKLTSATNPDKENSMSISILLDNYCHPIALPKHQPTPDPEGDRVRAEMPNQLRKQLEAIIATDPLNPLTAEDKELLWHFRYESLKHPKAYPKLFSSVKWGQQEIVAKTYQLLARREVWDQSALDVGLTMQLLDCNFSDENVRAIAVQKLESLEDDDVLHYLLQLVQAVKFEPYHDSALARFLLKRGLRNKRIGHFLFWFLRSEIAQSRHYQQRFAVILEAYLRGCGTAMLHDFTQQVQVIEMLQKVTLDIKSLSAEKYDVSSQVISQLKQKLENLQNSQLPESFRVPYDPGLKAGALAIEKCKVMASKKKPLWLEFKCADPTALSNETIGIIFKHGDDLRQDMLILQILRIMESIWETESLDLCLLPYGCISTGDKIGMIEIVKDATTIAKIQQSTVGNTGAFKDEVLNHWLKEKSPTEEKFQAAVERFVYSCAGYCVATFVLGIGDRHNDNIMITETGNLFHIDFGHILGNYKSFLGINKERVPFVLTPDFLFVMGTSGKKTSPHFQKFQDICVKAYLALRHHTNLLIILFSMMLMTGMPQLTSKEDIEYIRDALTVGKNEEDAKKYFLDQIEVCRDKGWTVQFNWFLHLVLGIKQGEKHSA

[2] = tested on: other kinases (named per endpoint); conditions: cited from earlier work
ATR = ATR (Homo sapiens, UniProt Q13535); conditions: cited from earlier work
[3] = tested on: macrophages in atherosclerosis plaques; conditions: ApoE null mice fed high fat diet (She et al. 2016); cited from earlier work
tumor = conditions: systemic treatment of mice; cited from earlier work
atherosclerotic plaque = conditions: systemic treatment of mice; cited from earlier work
DNA-PK = DNA-PK (Homo sapiens, UniProt P78527); conditions: cited from earlier work
Raw264.7 cells = assay: In vitro peptide binding, flow cytometry, Raw264.7; assay type: cell-based; conditions: FAM-labeled peptide 10 μM, 1 h at 4° C., controls ARA, GGSGGSKG
Method: (§1) J774A.1 and RAW264.7 cells were obtained from ATCC. Cells were maintained in Dulbecco's Modified Eagle Medium supplemented with 10% fetal bovine serum, 1% Glutamine-Pen-Strep and […].
(§2) Cells were incubated on a rotator with peptides added at a final concentration of 10 μM in DMEM plus 1% BSA. For inhibition studies, biotin-CRV was added to a final concentration of 500 μM together with FAM-CRV (10 μM final). After 1 h at 4° C., cells were washed 3 times with PBS followed by flow cytometry analysis.
(§3) The peptide corresponding to the sequence of the top clone: […] (referred to as CRV herein; SEQ ID NO:1) was then synthesized. A green carboxy-fluorescein label (FAM) was added to the N-terminus of CRV to aid detection. CRV binding to two macrophage cell lines, J774A.1 and Raw264.7 was tested. Control peptides used were ARA ([…]; SEQ ID NO:8) and […] (SEQ ID NO:9).

[4] = tested on: cells isolated from 4T1 tumors; assay: Ex vivo binding of FAM-CRV to cells isolated from 4T1 tumors; assay type: cell-based, mice; conditions: FAM-CRV 10 μM, 1-hour at 4° C., flow cytometry
Method: To determine the identity of the cells that FAM-CRV localized in within the tumors, ex vivo binding of FAM-CRV to cells isolated from tumors was studied. Tumors were excised from mice bearing 4T1 breast cancer and dissociated into single cell populations using MACS dissociation kit according to the manufacturer's instructions. FAM-CRV was added to a final concentration of 10 μM into a solution of DMEM+1% BSA containing 2 million tumor cells. After 1-hour incubation at 4° C., cells were stained with various immune cell markers. The markers tested include: CD11b (pan-monocyte/macrophage marker), Ly6-G (granulocytic monocyte), CCR2 (infiltrating monocytes), F4/80, CD4 (helper T cells), CD8 (cytotoxic T cells). Cells were stained for the indicated markers and subjected to flow cytometry analysis. The analysis was performed using antibodies to the indicated macrophage markers on CRV-positive cells.

[5] = tested on: macrophages in atherosclerosis plaques; assay: In vivo homing to atherosclerosis plaques; design: species or system mice; conditions: 200 μg FAM-labeled peptide intravenously, 1 hour of circulation
Method: (§4) To produce 4T1 tumors, 1×10^6 4 T1 cells (ATCC) suspended in 100 μl of PBS were injected into the mammary fat pad of wild type Balb/c female mice. C57BL/6 mice bearing atherosclerosis plaques were generated as previously described (She et al., Journal of Controlled Release 238:212-20 (2016)). Animal experimentation was performed according to the procedures approved by the Animal Research Committee at the Sanford-Burnham Medical Research Institute.
(§5) Orthotopic 4T1 tumors were used when they reached 0.5-1 cm in size. For tumor or plaque homing, 200 μg FAM-labeled peptide dissolved in 100 μl PBS was injected intravenously into mice. After 1 hour of circulation, the mice were euthanized by cardiac perfusion with PBS under anesthesia, and tumors and other organs (or plaques on the aorta) were dissected and analyzed for peptide homing.
Therefore, whether CRV also binds to macrophages in this model was investigated. 200 μg FAM-labeled peptide or control peptide ARA, each dissolved in 100 μl PBS, was injected intravenously into mice. After 1 hour of circulation, the mice were euthanized by cardiac perfusion with PBS under anesthesia, and tumors and other organs (or plaques on the aorta) were dissected and imaged with illuminator for FAM signal.

4T1 breast tumors = assay: In vivo peptide homing in mice bearing orthotopic 4T1 breast tumors; conditions: 1 hour
Method: as §4, §5
In vivo tissue distribution of CRV peptide in tumor mice was investigated. FAM-CRV was injected intravenously into mice bearing 4T1 breast tumors. After 1 hour, perfusion through the heart was performed to eliminate any circulating peptide. Heart, lung, liver, kidney, spleen, and tumor were excised and the FAM-CRV signal was imaged with an illuminator.
CRV homing in tumor mice was investigated. Mice with orthotopic 4T1 breast tumors (n=2) were intravenously injected with 100 μg of CRV peptide labeled with a green fluorophor (FAM). The peptide was allowed to circulate for 1 hour, and the mice were perfused through the left ventricle of the heart to eliminate any peptide remaining in the blood. Major organs were excised and examined under visible and fluorescent light.

J774A.1 cells [6] = assay: In vitro peptide binding, flow cytometry, J774A.1; assay type: cell-based, mouse
Method: as §1, §2, §3

[7] = tested on: macrophages in sites of infection; assay: Targeting of macrophages in sites of infection; assay type: in vivo; conditions: microbial, viral, or bacterial infection; no method given

Q: With `CCn1nnc2c(N3CCOCC3)nc(-c3ccc(NC(=O)Nc4ccc(C(=O)N5CCN(C)CC5)cc4)cc3)nc21` [PKI-402] as the compound, how does the IC50 (PI3Kβ) read?
A: Its IC50 is 7 nM.

Q: What about the IC50 (mTOR) of the same compound?
A: Its IC50 is 3 nM.

Q: Which Count (J774A.1 cells [1]) does the source give for SVAYD here?
A: The Count was 10187.

Q: With `Fc1ccc2[nH]ccc2c1-c1nc(N2CCOCC2)c2sc(CN3CCN(CC4CC4)CC3)cc2n1` [PI-3065] as the compound, how does the selectivity ratio (PI3Kδ) read?
A: Its selectivity ratio is greater than 70.

Q: For `O=c1c(O)c(-c2ccc(O)c(O)c2)oc2cc(O)cc(O)c12` [Quercetin], which IC50 (class I PI3K isoforms; isoform not stated, read-out: PI3K IC50) is on record?
A: Its IC50 is 2400 to 5400 nM.

Q: Which Count (J774A.1 cells [1]) does the source give for GRVLRSS here?
A: Its Count is 6774.

Q: Which Count (J774A.1 cells [1]) does the source give for RVLRSGS here?
A: Its Count is 63428.

Q: With `O=C1NC(=O)C(=Cc2ccc(-c3ccc(F)cc3)o2)S1` (stereo in doubt) [CAY10505] as the compound, how does the IC50 (PI3Kγ) read?
A: Its IC50 is 33 nM.

Q: Which “activity against Vps34, AKT, PDK1, p7056K, MEK, ERK, p38, or JNK” value [2] does the source give for `COc1ccc(-c2cc3c(C)nc(N)nc3n([C@H]3CC[C@H](OCCO)CC3)c2=O)cn1` [PF-04691502] here?
A: The value was “nM, little activity against either Vps34, AKT,”.

Q: For `Cn1c(=O)n(-c2ccc(C(C)(C)C#N)cc2)c2c3cc(-c4cnc5ccccc5c4)ccc3ncc21` [BEZ235, Dactolisib], which “inhibition of Akt and PDK1” value [2] is on record?
A: The value was “be a poor inhibitor to Akt and PDK1. Phase 2”.

Q: What about the IC50 (ATR) of the same compound?
A: Its IC50 is 21 nM.

Q: Which Count (J774A.1 cells [1]) does the source give for GGRVLRS here?
A: The Count was 62028.

Q: What does the source list for “CGNKRTRGC (also: cyclic, kind and places not given here) [LyP-1, receptor is cell surface protein p32]”?
A: homing to / recognition of macrophages in atherosclerosis plaques [3]: homes to macrophages residing in atherosclerosis plaques; also recorded: recognizes macrophages both in tumors and atherosclerotic plaques; tumor growth (tumor): slows down tumor growth; atherosclerotic plaque (atherosclerotic plaque): reduces atherosclerotic plaque

Q: For `Cc1ccc([N+](=O)[O-])cc1S(=O)(=O)N(C)/N=C/c1cnc2ccc(Br)cn12` [PIK-75], which IC50 (DNA-PK) is on record?
A: Its IC50 is 2 nM.

Q: And the IC50 (PI3Kγ)?
A: Its IC50 is 76 nM.

Q: For RSGLRSS, which Count (J774A.1 cells [1]) is on record?
A: Its Count is 9519.

Q: Which Count (J774A.1 cells [1]) does the source give for GRMLRSG here?
A: The Count was 8922.

Q: What does the source list for `Cc1ccccc1-n1c(Cn2ncc3c(N)ncnc32)nc2cccc(C)c2c1=O` [PIK-293]?
A: IC50 (PI3Kδ): 240 nM; IC50 (PI3Kγ): 10000 nM

Q: With `FC(F)c1nc2ccccc2n1-c1nc(N2CCOCC2)nc(N2CCOCC2)n1` [ZSTK474] as the compound, how does the IC50 (class I PI3K isoforms; read-out: IC50 for PI3K isoforms stated together (PI3Kα/β/δ/γ; class I PI3K isoforms)) read?
A: Its IC50 is 37 nM.

Q: Which Count (J774A.1 cells [1]) does the source give for SVGRSMRS here?
A: Its Count is 7916.

Q: With `CCn1c(=O)c(-c2cc[nH]n2)cc2c(C)nc(N)nc21` [SAR245409] as the compound, how does the “inhibition of DNA-PK and mTOR” value [2] read?
A: The value was “also inhibits DNA-PK and mTOR. Phase 1/2”.

Q: For GGASIT, which Count (J774A.1 cells [1]) is on record?
A: Its Count is 8677.

Q: For “CRVLRSGSC (disulfide 1-9 (inferred); also: FAM or biotin label) [TAM-homing peptide; tested with N-terminal FAM label (FAM-CRV) or biotin label (biotin-CRV)]”, which “binding to Raw264.7 cells versus control peptides” value (Raw264.7 cells) is on record?
A: Its value is “higher binding”.

Q: What about the “binding to different subtypes of CD11b+ cells (CD11b+Ly-6G+ vs. CD11b+Ly-6G-)” value [4] of the same compound?
A: The value was “binds equally well”.

Q: What about the “share of CRV-positive cells that are CD11b+ cells” value [4] of the same compound?
A: Its value is roughly 80%.

Q: And the “homing to atherosclerosis plaques” value [5]?
A: The value was “does not home to plaques; also recorded: recognizes macrophages in tumors but not in atherosclerotic plaques”.

Q: What about the “localization in tumor sections (fluorescence microscopy)” value (4T1 breast tumors; 100 μg FAM-labeled peptide intravenously) of the same compound?
A: Its value is “lack of co-localization of CRV with the blood vessel marker CD31; also recorded: entered into the extravascular compartment of the tumor; also recorded: Partial co-localization of CRV with the macrophage marker F4/80; also recorded: localizes in a CD45 leukocyte-rich tumor area; also recorded: co-localizes with macrophages having the macrophage markers F4/80 and with lymphatic vessels in tumors”.

Q: What about the “organ fluorescence after injection of FAM-labeled peptide” value (4T1 breast tumors; 100 μg intravenously, perfusion, n=2) of the same compound?
A: Its value is “tumors were positive for peptide fluorescence; also recorded: Some fluorescence was seen in one lung; also recorded: kidneys were positive; also recorded: preferentially homes to tumors”.

Q: And the “in vivo tissue distribution (FAM signal of excised organs)” value (4T1 breast tumors; FAM-CRV intravenously, perfusion, heart, lung, liver, kidney, spleen, tumor)?
A: Its value is “mainly found in the tumors and the kidneys, with trace amounts or none in the liver, spleen, lungs and heart”.

Q: And the “binding to J774A.1 cells versus control peptides” value (J774A.1 cells [6]; FAM-labeled peptide 10 μM, 1 h at 4° C., flow cytometry, controls ARA, GGSGGSKG)?
A: Its value is “higher binding”.

Q: What about the “effect of excess biotin-labeled CRV on binding of FAM-CRV to J774A.1 cells” value (J774A.1 cells [6]; biotin-CRV 500 μM (50-fold excess), FAM-CRV 10 μM) of the same compound?
A: Its value is “inhibited the binding”.

Q: What about the “ability of the host to clear the infection” value [7] of the same compound?
A: The value was “markedly increased ability of the host to clear the infection”.

Q: With GRLLRSG as the compound, how does the Count (J774A.1 cells [1]) read?
A: The Count was 9124.
